Reference: patent US20130344183A1, “NOVEL COMPOUND ISOLATED FROM […] ROXB AND USE THEREOF AS ANTIVIRAL AGENT” (priority 2011, published 2013)

System: A/Vietnam/1194/04(H5N1)-NIBRG-14 highly pathogenic avian influenza virus
Format: cell-based

SMILES | CPE inhibitory concentration | log100TCID50/ | Activity | viral titer lower than that of the control group
C=C1C(=O)O[C@@H]2[C@@H]1[C@H](OC(=O)/C(C)=C\C)[C@@]1(O)O[C@H](C[C@@H]1C)C[C@@](C)(O)[C@H]2OC(=O)C(C)C [Compound I, 2α,5-epoxy-5,10-dihydroxy-6α-angeloyloxy-9β-isobutyloxy-germacran-8α,12-olide] | >10 µg/mL | 0 |  | 
C=C1C(=O)O[C@@H]2[C@@H]1[C@H](OC(=O)/C(C)=C\C)[C@@]1(O)O[C@H](C[C@@H]1C)C[C@@](C)(O)[C@H]2OC(=O)CC(C)C [Compound III, 2α,5-epoxy-5,10-dihydroxy-6α-angeloyloxy-9β-(3-methyl-butanoyloxy)-gemacran-8α,12-olide] | >10 µg/mL | 0 |  | 
C=C1C(=O)OC2CC(C)(O)C3CCC(C)(O)C3CC12 (stereo not drawn) [Compound IV, 4β,10α-dihydroxy-guaia-8α,12-olide] |  | 5 | ∘ (key: ∘: antiviral activity defined as a decrease of 4 log units) | 4 log
